{
  "source": "patent US11702442B2",
  "about": "“Cyclic dinucleotide compounds as sting agonists” (The Regents of the University of California, priority 2019, dated 2023)",
  "key": {"[1]": {"test_system": "STING pathway", "assay": "IRF3 phosphorylation in RAW 264.7 cells (immunoblot pIRF3 vs β-actin)", "format": "cell-based, murine", "settings": "2 h after transfection; for IRF3 phosphorylation (pIRF3), concentration dependence: RAW 264.7, 1, 5 and 10 μM CDN", "procedure": "FIGS. 2A-2B show IRF3 phosphorylation induced by c-di-GMP and its analogues. […] 1, 5 and 10 μM of each CDN was used to transfect RAW 264.7 cells. Cells were lysed with NP-40 lysis buffer 2 h post transfection, 20 μg of total protein was loaded on SDS-polyacrylamide gel. Proteins were transferred to PVDF membrane after gel electrophoresis, and immunoblotted against pIRF3 and β-actin. […] The y-axis indicates relative intensity of pIRF3 compare to β-actin.\nTo analyze the immunostimulatory effects of all synthetic CDNs in greater detail, RAW 264.7 cells were treated with various concentrations of c-di-GMP, c-di-tzGMP, c-di-thGMP, c-GthGMP and c-GtzGMP and the phosphorylation of IRF3 to pIRF3 was evaluated. CDNs were thus transfected into RAW 264.7 murine cells with digitonin as described in previous studies.[7b,16] Cells were then lysed with NP-40 buffer 2 h after transfection, and total protein was collected for immunoblotting against phosphorylated IRF3 (pIRF3) and β-actin. […] Two other biological replicates produced similar trends (See FIG. S2 in Yi et al, ChemBioChem, Volume 21 (2020)).\nImmunoblotting. RAW 264.7 cells were plated on 24-well plates (5×10^5 cells per well) and incubate at 37° C. for 48 h. Cells were then transfected with 1-10 μM of CDN in a permeabilization buffer containing 10 μg/mL digitonin, 50 mM HEPES, pH 7, 100 mM KCl, 3 mM MgCl2, 85 mM sucrose, 1 mM ATP, 0.1 mM DTT, 0.2% BSA for 30 mins at 37° C., then incubated with regular growth medium for 2 h. Cells were lysed with NP-40 lysis buffer containing protease inhibitor cocktail (Roche), PhosSTOP (Roche) and PMSF, and total protein was collected and quantified by BCA assay. Protein extracts were resolved by SDS-PAGE with 7.5% gel and transferred to PVDF membrane. Proteins were detected with the following primary antibodies: rabbit anti-pIRF3 monoclonal antibody (Cell Signaling Technology), mouse anti-β actin monoclonal antibody (Sigma-Aldrich)."}, "[2]": {"test_system": "STING pathway", "assay": "IFN-β mRNA production in RAW 264.7 cells by RT-qPCR", "format": "cell-based, murine", "settings": "for IFN-β mRNA production / IFN response: RAW 264.7, 1, 5, 10 μM CDN, 2, 4, 6 h; for time post transfection of highest IFN-β mRNA production: RAW 264.7, 1, 5 and 10 μM CDN, 2, 4 and 6 h tested; for order of IFN-β induction: RAW 264.7, RT-qPCR, FIG. 3", "procedure": "FIGS. 3A-3C provide IFN data. […] RAW 264.7 cells were transfected with 1, 5, 10 μM of c-di-GMP, c-di-^tzGMP, c-G^thGMP, c-di-G^thGMP and c-G^tzGMP, and incubated for 2, 4, 6 h before being lysed by TRIzol. RNA purification and RT-qPCR were conducted following the protocol described in the Experimental Section. FIG. 3B show IFN response after 2, 4, 6 h of incubation with 5 μM of CDNs. […] Two independent assays were performed in triplicates (n=2). Error bars indicate SD. See Yi et al, Tuning the Innante Immune Response to Cyclic Dinucleotides by Using Atomic Mutagenesis, ChemBioChem, Volume 21 (2020).\nAs most synthetic c-di-GMP analogues activated IRF3, the inventors analyzed their dose and time dependency for inducing IFN-β mRNA production by using RT-qPCR. RAW 264.7 cells were transfected with 1, 5 and 10 μM of CDNs as described above and incubated for 2, 4 and 6 h. Total RNA was isolated and used for RT-qPCR. As shown in FIGS. 3A-3B, c-di-GMP induced the most IFN-β mRNA production 4 h post transfection, whereas the highest response was observed after 2 h for c-di-tzGMP, c-GthGMP, and c-GtzGMP.\nRT-qPCR. RAW 264.7 cells were plated on 48-well plates (2.5×10^5 cells per well) and transfected with CDN using the same method as above after 48 h of incubation at 37° C. Cells were then incubate with regular growth medium for designated time, and total RNA was isolated with TRIzol® reagent and purified with RNeasy mini kit (Qiagen) following the manufacturer's protocol. Following elution, RNA yields were evaluated using a Nanodrop spectrophotometer (Nanodrop technologies). RNA samples were converted to cDNA with SuperScript III First-Strand Synthesis kit (Invitrogen) with random hexamers following the manufacturer's protocol. Quantitative PCR (SYBR Green) analysis was performed in duplicates on an Applied Biosystems 7300 Real-time PCR system (Invitrogen). Transcription level of IFN-β gene of each sample was normalized to housekeeping gene TBP and then to untreated samples (UT) using the delta-delta CT method."}, "[3]": {"target": "DncV (Vibrio cholerae serotype O1, UniProt Q9KVG7)", "sequence (Q9KVG7 whole entry)": "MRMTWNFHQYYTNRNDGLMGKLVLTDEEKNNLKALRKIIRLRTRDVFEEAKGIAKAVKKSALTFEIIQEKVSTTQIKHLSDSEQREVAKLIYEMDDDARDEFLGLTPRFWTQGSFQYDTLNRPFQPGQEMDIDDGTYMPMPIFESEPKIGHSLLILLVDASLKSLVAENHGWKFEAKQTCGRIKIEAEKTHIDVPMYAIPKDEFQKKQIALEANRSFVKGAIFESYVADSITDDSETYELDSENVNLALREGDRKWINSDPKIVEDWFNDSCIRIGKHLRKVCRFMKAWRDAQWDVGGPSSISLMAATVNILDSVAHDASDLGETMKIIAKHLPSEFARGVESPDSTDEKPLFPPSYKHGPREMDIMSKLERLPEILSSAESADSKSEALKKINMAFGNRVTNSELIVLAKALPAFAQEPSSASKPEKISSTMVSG", "assay": "DncV-mediated CDN synthesis kinetics monitored by HPLC", "format": "biochemical", "parameters": "made in house; host or cells: Escherichia coli BL21(DE3)", "settings": "for k2 / k3 / k1: 500 μM NTP, DncV, 37° C., mean±SD; for k2: cyclization of intermediate to product; for k3: degradation of intermediate; for k1: first phosphodiester bond formation; for k1 derived from HPLC analysis: as quoted for comparison with kapp; for k2/k3: product formation vs intermediate degradation", "description": "DncV generates CDNs through a series of sequential reactions, which are thought to involve a release-and-rebound process of the intermediate. [7b,17] After the first 3′,5′-phosphodiester bond formation, the linear dinucleotide pppNpN is released and oppositely rebound to the enzyme, after which the second 3′,5′-phosphodiester linkage is made. [7b,16b,18] To ultimately apply and interpret real-time fluorescence measurements, a better understanding of the enzymatic conversion of GTP and its analogues into the corresponding CDNs is therefore required. The reaction time course was consequently analyzed, paying particular attention to the accumulation and consumption of intermediates. DncV was incubated with GTP, tzGTP and thGTP, and the reactions containing each of the corresponding substrates were quenched with calf intestinal alkaline phosphatase (CIAP) at designated time points. The relative concentrations of the starting material (S), uncyclized intermediate (I) and product (P) were then monitored by HPLC. […] Taking into account the unique release-and-rebound process of the uncyclized dinucleotide intermediate, [16b,20] the kinetics of the DncV-mediated CDN syntheses was therefore analyzed according to the model in Scheme 1a and the differential Equations (1)-(4), in which S represents the starting NTP, I1 and I2 respectively represent intermediates pppNpN and degraded intermediate pNpN (I=I1+I2), and P represents the product CDN. Papp (apparent product) stands for the sum of all the dinucleotide species, including linear ones and cyclized products.\nDifferential Equations (1)-(4) d[S]/dt=−2k1[S]^2 (1) d[I1]/dt=k1[S]^2−[…] (2) d[P]/dt=k2[I3] (3) d[I2]/dt=k3[I1] (4)\n[…] of the mixture was subjected to HPLC analysis after filtration. The reaction mixture was separated by Sepax Bio C-18 column (250×10 mm, 5 pmparticle size) with a gradient of 0.5%-25% of 10 mM TEAA, pH7 in Me0H in 20 min at 25° C. on an Agilent 1200 series HPLC system (Agilent Technologies).\nData Analysis and curve fitting. […] The relative concentrations were plotted against time."}},
  "note": "Entries after “also recorded” stand apart in the source; their conditions may differ.",
  "data": [
    {"compound": "Nc1nc2c([C@@H]3O[C@@H]4COP(=O)(O)O[C@H]5[C@@H](O)[C@H](n6cnc7c(=O)[nH]c(N)nc76)O[C@@H]5COP(=O)(O)O[C@H]4[C@H]3O)scc2c(=O)[nH]1", "note": "[c-G^thGMP]", "values": [
      {"measurement": "IRF3 phosphorylation (pIRF3), concentration dependence", "setting": "[1]", "result": "no clear dose-response"},
      {"measurement": "IFN-β mRNA production relative to c-di-GMP", "setting": "[2]; RAW 264.7, 5 μM CDN, 2 h incubation", "result": "tenfold higher"},
      {"measurement": "IFN-β mRNA production / IFN response", "setting": "[2]", "result": "highest potency; also recorded: earlier and stronger maximum IFN-β response compared to the native c-di-GMP; also recorded: strongest effect on IFN-β induction of all analogues tested; also recorded: faster and greater innate immune response relative to the native signal c-di-GMP"},
      {"measurement": "time post transfection of highest IFN-β mRNA production", "setting": "[2]", "result": 2, "unit": "h"},
      {"measurement": "order of IFN-β induction", "setting": "[2]", "result": "c-GthGMP>c-di-tzGMP>c-GtzGMP>c-di-GMP>c-di-thGMP"}
    ]},
    {"compound": "Nc1nc2c([C@@H]3O[C@@H]4COP(=O)(O)O[C@H]5[C@@H](O)[C@H](c6snc7c(=O)[nH]c(N)nc67)O[C@@H]5COP(=O)(O)O[C@H]4[C@H]3O)snc2c(=O)[nH]1", "note": "[c-di-^tzGMP]", "values": [
      {"measurement": "IRF3 phosphorylation (pIRF3), concentration dependence", "setting": "[1]", "result": "Increasing amounts of phosphorylated IRF3"},
      {"measurement": "IFN-β mRNA production / IFN response", "setting": "[2]", "result": "earlier and stronger maximum IFN-β response compared to the native c-di-GMP"},
      {"measurement": "time post transfection of highest IFN-β mRNA production", "setting": "[2]", "result": 2, "unit": "h"},
      {"measurement": "order of IFN-β induction", "setting": "[2]", "result": "c-GthGMP>c-di-tzGMP>c-GtzGMP>c-di-GMP>c-di-thGMP"},
      {"measurement": "k2", "setting": "[3]", "result": "(3.4 ± 0.2) × 10^−3 s^−1"},
      {"measurement": "k2", "setting": "[3]; listed as c-di-tzGMP", "result": "(3.4±0.2)×10^−3 s^−1"},
      {"measurement": "k3", "setting": "[3]", "result": "(1.3 ± 0.1) × 10^−4 s^−1"},
      {"measurement": "k3", "setting": "[3]; listed as c-di-tzGMP", "result": "(1.3±0.1)×10^−4 s^−1"},
      {"measurement": "k1", "setting": "[3]", "result": "(1.26 ± 0.07) × 10^−6 μM^−1s^−1"},
      {"measurement": "k1", "setting": "[3]; listed as c-di-tzGMP", "result": "(1.26±0.07)×10^−6 μM^−1s^−1"},
      {"measurement": "k1 derived from HPLC analysis", "setting": "[3]", "result": "1.26 ± 0.07", "unit": "M⁻¹ s⁻¹"},
      {"measurement": "k2/k3", "setting": "[3]", "result": 26}
    ]},
    {"compound": "Nc1nc2c([C@@H]3O[C@@H]4COP(=O)(O)O[C@H]5[C@@H](O)[C@H](c6scc7c(=O)[nH]c(N)nc67)O[C@@H]5COP(=O)(O)O[C@H]4[C@H]3O)scc2c(=O)[nH]1", "note": "[c-di-^thGMP]", "values": [
      {"measurement": "IRF3 phosphorylation (pIRF3), concentration dependence", "setting": "[1]", "result": "did not trigger observable IRF3 activation at any of the concentrations tested"},
      {"measurement": "IFN-β mRNA production / IFN response", "setting": "[2]", "result": "minimal; also recorded: essentially inactive"},
      {"measurement": "order of IFN-β induction", "setting": "[2]", "result": "c-GthGMP>c-di-tzGMP>c-GtzGMP>c-di-GMP>c-di-thGMP"},
      {"measurement": "k2", "setting": "[3]", "result": "(2.32 ± 0.05) × 10^−4 s^−1"},
      {"measurement": "k2", "setting": "[3]; listed as c-di-thGMP", "result": "(2.32±0.05)×10^−3 s^−1"},
      {"measurement": "k3", "setting": "[3]", "result": "(2.91 ± 0.01) × 10^−5 s^−1"},
      {"measurement": "k3", "setting": "[3]; listed as c-di-thGMP", "result": "(2.91±0.01)×10^−5 s^−1"},
      {"measurement": "k1", "setting": "[3]", "result": "(3.08 ± 0.03) × 10^−7 μM^−1s^−1"},
      {"measurement": "k1", "setting": "[3]; listed as c-di-thGMP", "result": "(3.08±0.03)×10^−7 μM^−1s^−1"},
      {"measurement": "k1 derived from HPLC analysis", "setting": "[3]", "result": "0.31 ± 0.03", "unit": "M⁻¹ s⁻¹"},
      {"measurement": "k2/k3", "setting": "[3]", "result": 8.0}
    ]},
    {"compound": "Nc1nc2c(ncn2[C@@H]2O[C@@H]3COP(=O)(O)O[C@H]4[C@@H](O)[C@H](n5cnc6c(=O)[nH]c(N)nc65)O[C@@H]4COP(=O)(O)O[C@H]3[C@H]2O)c(=O)[nH]1", "note": "[c-di-GMP, reference compound]", "values": [
      {"measurement": "IRF3 phosphorylation (pIRF3)", "setting": "[1]; RAW 264.7, 1 μM CDN", "result": "did not induce obvious IRF3 activation"},
      {"measurement": "IRF3 phosphorylation (pIRF3)", "setting": "[1]; RAW 264.7, 5 and 10 μM CDN", "result": "comparable efficiency in inducing IRF3 phosphorylation"},
      {"measurement": "time post transfection of highest IFN-β mRNA production", "setting": "[2]", "result": 4, "unit": "h"},
      {"measurement": "order of IFN-β induction", "setting": "[2]", "result": "c-GthGMP>c-di-tzGMP>c-GtzGMP>c-di-GMP>c-di-thGMP"},
      {"measurement": "k2/k3", "setting": "[3]", "result": 116}
    ]}
  ]
}
